SMILES strings stand for the structures.

We go through one molecule from patent US8629145B2, “Therapeutic agent for spinal canal stenosis” (Nippon Shinyaku Co., Ltd., priority 2008, dated 2014).

The assay relates to model rats suffering from walking disability due to compression of cauda equina. As to the kind of experiment: walking disability model due to compression of cauda equina (treadmill walking distance). The assay is classed as in vivo, Wistar strain rats. As to conditions: rat, oral twice daily, suspension 0.2 mg/mL in 0.5 w/v % methyl cellulose, until 13th or 20th day after operation; vs control group p<0.01. The procedure:
Wistar strain rats (male; seven weeks age) (Charles Liver Japan) were subjected to a walk training once daily for continuous three or four days using a treadmill (manufactured by Muromachi Kikai). On the last day of the walk training, the animals were grouped and, on the next day, the walking time was measured and then a sham operation or an operation for compressing the cauda equina mentioned below i) was carried out. On the third, seventh, fourteenth and twenty-first days after the operation, walking time was measured. Based on the walking time measured, a walking distance was calculated.
After measuring the walking time on the third day, the group for which the operation for compressing the cauda equina was carried out was further grouped into a control group and a drug-administered group on the basis of their walking distances on the day when the operation was done and on the third day after the operation. […]
The treadmill was operated and walking time of each rat was measured using a timer. […]
As to the evaluation, the control group was evaluated by a Welch test against the sham operation group (##: p<0.01). The drug-administered group was evaluated by a t-test or a Welch test against the control group (★★: p<0.01).

Consider `CC(C)N(CCCCOCC(=O)NS(C)(=O)=O)c1cnc(-c2ccccc2)c(-c2ccccc2)n1` [compound A, 2-{4-[N-(5,6-diphenylpyrazin-2-yl)-N-isopropylamino]butyloxy}-N-(methylsulfonyl)acetamide], for which the “disability in walking due to compression of cauda equina (walking distance)” value is reported as “significantly improved”.
